The values below come from patent US10865203B2, “Ligands selective to alpha 6 subunit-containing GABAA receptors and their methods of use” (UWM Research Foundation, Inc., priority 2015, dated 2020).

Each structure is given as a SMILES string.

One series has as its system IoN-CCl Wistar rats. Description: IoN-CCl model, face grooming during body grooming. The format is in vivo, rat. The following applies: 10 mg/kg i.p. daily; 10 min of recording. As to the method:
Chronic constriction injury (CCl) is a common neuropathic pain model. The unilateral ligature of the infraorbital nerve (IoN) in rats, as an animal model of peripheral neuropathic pain, and more specifically, trigeminal neuralgia and trigeminal neuropathy, was performed as described by Desuere and Hans (Deseure et al. J. Vis. Exp. 2015, 103, e53167). Wistar rats (46 in total) were randomly assigned to one of four experimental groups and then were behaviorally tested in a blinded manner. For studying the effects of subchronic treatment with the nanoemulsion formulation of DK-I-56-1 in IoN-CCl rats, DK-I-56-1 (10 mg/kg i.p.) or its vehicle (placebo nanoemulsion i.p.) were injected daily for 14 consecutive days after surgery. Sham-operated rats were treated in parallel. By a procedure slightly modified from Djordjevic et al. (Int. J. Pharm. 2015, 493, 40-54), biocompatible nanoemulsions were prepared by high pressure homogenization at 50° C. […] First, the response to the application of a graded series of three von Frey filaments onto ipsilateral vibrissal pad was measured on pre-operative days −3 and −1 and post-operative days 7, 14, 21, and 28. […] The other parameter, face grooming during body grooming, was manually assessed during 10 min of recording on pre-operative day −2 and post-operative days 2, 4, 8, and 15 (i.e. after 1, 3, 7, and 14 applications of treatment). […]

Series [1] is described as follows: Half-life in liver microsomes (Example 4). The format is in vitro ADME. The following applies: rat and human liver microsomes, species of the value not stated. The text has this: Metabolic pathways that may disrupt the activity of compounds with aryl methoxy groups were investigated.
A further series has as its system mice, motor coordination. Kind of series: Rotarod test. The format is in vivo, mouse. The conditions noted are these: 3 mg/kg, 15 min after treatment. As to the method: The motor coordinating activity of the mouse was measured by its performance on a rotarod in the sdi rotor-rodtm system (San Diego Instruments, San Diego, Calif.). The mouse was trained four times a day for 3 days until it could stay on the rotating drum at a rotating speed of 24 rpm for at least 120 sec. Then, the mouse was subjecting to the rotarod test at the rotating speed accelerating gradually from 0 to 30 rpm, and the latency to fall from the rotating drum was recorded. The cut-off time for the latency to fall was 300 sec. Animals were treated with the tested drug or vehicle for 15 min before receiving the test.

Series [2] has as its system mice, methamphetamine-induced hyperlocomotion. Description: Locomotor activity, methamphetamine-induced hyperlocomotion. The series is classed as in vivo, mouse. How it is done:
The locomotor activity of the mouse was measured by its interruptions of infra-red photobeans in a locomotor cage (42 cm×42 cm×36 cm) in the photobeam activity system (San Diego Instruments, San Diego, Calif.). After acclimation, the mouse was treated with ci extract or vehicle for 15 min, followed by ma (2 mg/kg). Then, the mouse was gently placed in the locomotor cage and the horizontal and vertical interruptions were counted every 5 min for 60 min. Total locomotor activity was the sum of interruptions within 60 min.
Mice were anaesthetized with sodium pentobarbital (60 mg/kg i.p.) And placed in a stereotaxic frame keeping the bregma-lambda axis horizontal. After shaving the hair and exposing the skull surface, the mouse was implanted with two 24-gauge stainless-steel guide cannulas, respectively, directing towards the right and left lateral cerebella (−6.4 mm caudal, ±1.5 mm lateral, −1.0 mm ventral from bregma) according to the stereotaxic coordinate of the mouse (Paxions 2001). The cannulas were fixed on the top of the skull by stainless steel screws and dental cement. The animal was allowed to fully recover after surgery for at least one week before the behavioral test was conducted.
On the day for behavioral tests, a 30-gauge injection cannula connected to a 1 μL hamilton syringe was inserted into the guide cannula for drug injection. The drug solution of 0.5 μL in each side was slowly infused with a microinfusion pump (kds311, kd scientific inc.) For 30 s with a further “hold” time for 60 s. The microinjection site was confirmed by the positive staining of trypan blue, which was injected through the cannula after behavioral tests. Data from mice with offsite injections were discarded.

`[2H]C([2H])([2H])Oc1ccc(-n2nc3c4ccc(OC)cc4[nH]cc-3c2=O)cc1` [DK-I-56-1, 7-Methoxy-2-(4-methoxy-d3-phenyl)-2,5-dihydro-3H-pyrazolo[4,3-c]quinolin-3-one]: the “face grooming during body grooming” value in the series on IoN-CCl Wistar rats is given as “lack of sedation-like or motor-impairing influences”.
Compound `COc1ccc(-n2nc3c4ccc(OC)cc4[nH]cc-3c2=O)cc1` [Compound 6, 7-Methoxy-2-(4-methoxyphenyl)-2,5-dihydro-3H-pyrazolo[4,3-c]quinolin-3-one] displayed a half-life in series [1] of 2.92 h. For the same compound, in the series with mice, motor coordination, the “motor coordination in the rotarod test” value is listed as “did not affect”. Besides, the “effect of intra-cerebellum furosemide on the rescue of hyperlocomotion” value in series [2] (furosemide 10 nmol) was “significantly antagonized”. Moreover, the methamphetamine-induced hyperlocomotion entry in series [2] (mice, 3 mg/kg i.p., METH 2 mg/kg i.p., 60 min) is recorded as “significantly rescued”. Further, the spontaneous motor activity result in series [2] (mice, 3 mg/kg i.p., saline instead of METH) was “did not affect”.
